Measurements reported in ChEMBL document CHEMBL1129949, “Correlation of antimalarial activity of artemisinin derivatives with binding affinity with ferroprotoporphyrin IX” (J Med Chem, 1997).

Each compound was assayed on Plasmodium falciparum (assay: Mean of EC50 values for FM3A cells/ mean of EC50 values for Plasmodium falciparum).
Format: functional, organism-based
Work on `C[C@@H]1CC[C@H]2C(Cn3ccnc3)C(O)O[C@@H]3OC4(C)CC[C@@H]1[C@]32OO4` (single isomer, unassigned) yielded an IC50 of 0.39 nM.
`CC1C(O)O[C@@H]2OC3(C)CC[C@H]4[C@H](C)CC[C@@H]1[C@@]24OO3` (single isomer, unassigned) gave an IC50 of 1.1 nM.
Compound `C=C1C(=O)O[C@@H]2OC3(C)CC[C@H]4[C@H](C)CC[C@@H]1[C@@]24OO3` (single isomer, unassigned) has an IC50 of 30 nM.
Work on `CC1C(OC(=O)CCC(=O)O)O[C@@H]2O[C@]3(C)CC[C@H]4[C@H](C)CC[C@@H]1[C@@]24OO3` (some centres undefined) yielded an IC50 of 0.62 nM.
For `C[C@@H]1CC[C@H]2C(Cn3ccnc3)C(=O)O[C@@H]3OC4(C)CC[C@@H]1[C@]32OO4` (single isomer, unassigned), the IC50 was 32 nM.
For `C[C@@H]1CC[C@H]2[C@@H](C)C(=O)O[C@@H]3O[C@@]4(C)CC[C@@H]1[C@]32OO4` [ARTEMISININ], the IC50 was 5 nM.
For `C[C@@H]1CC[C@H]2C(CSc3ccccc3)C(=O)O[C@@H]3OC4(C)CC[C@@H]1[C@]32OO4` (single isomer, unassigned), the IC50 was 20 nM.
Compound `CCOC1O[C@@H]2OC3(C)CC[C@H]4[C@H](C)CC[C@@H](C1C)[C@@]24OO3` (single isomer, unassigned) has an IC50 of 24 nM.
In the case of `COC1O[C@@H]2OC3(C)CC[C@H]4[C@H](C)CC[C@@H](C1C)[C@@]24OO3` (single isomer, unassigned), the IC50 is reported as 4.1 nM.
